Results published in patent publication US7404962B1, “Combination kit used in the treatment of malaria” (Nicholas Piramal India Limited, priority 2000, dated 2008).
Where two headings read alike, the source gives them in different places.

Assays:
[1] = Methemoglobin toxicity study in healthy human volunteers; type: in vivo
Method: 3-[1-[[4-[(6-methoxy-8-quinolinyl)amino]pentyl]amino]ethylidene]-dihydro-2(3H)furanone (I) was evaluated vis-à-vis primaquine for toxicity related to methemoglobin formation in human.
The methemoglobin toxicity of compound I was evaluated via-à-vis that of primaquine in normal human volunteers.

[2] = literature; cited from earlier work
P. vivax = experiment: Clinical evaluation of the combination kit in patients, one year surveillance study; type: in vivo, human; settings: compound I 25 mg vs primaquine 15 mg, each with chloroquine
Method: The efficacy of the combination kit of the present invention, containing compound I (25 mg) was clinically evaluated and compared with primaquine (15 mg) used in combination with chloroquine in a group of patients over a one year surveillance study.

[3] = literature, cited from earlier work
[4] = test system: anti-oxidant defense enzymes; settings: literature; cited from earlier work
P. cynomolgi = experiment: Radical curative activity against P. cynomolgi in rhesus monkeys; type: in vivo
Method: The radical curative anti-malarial activity and toxicity of the compound I was evaluated and compared with that caused by primaquine.
Combination regimen of chloroquine and 3-[1-[[4-[(6-methoxy-8-quinolinyl)amino]pentyl]amino]ethylidene]-dihydro-2(3H)furanone(I) tested against P. cynomolgi in rhesus monkeys.
The therapeutic effect of the combination regimen consisting of chloroquine and 3-[1-[[4-[(6-methoxy-8-quinolinyl)amino]pentyl]amino]-ethylidene]-4,5-dihydro-2(3H)furanone (I) was tested against P. cynomolgi in rhesus monkeys. 3-[1-[[4-[(6-methoxy-8-quinolinyl)-amino]pentyl]amino]ethylidene]-dihydro-2(3H)furanone(I) was administered in the dose level of 4.00 mg/kg (to 3 monkeys), 3.00 mg/kg (to 3 monkeys), 2.50 mg/kg (to 4 monkeys), 2.00 mg/kg (to 3 monkeys) and 1.25 mg/kg (to 9 monkeys) for 7 days. Chloroquine was administered as a companion drug at 5 mg/kg (base) dose. Minimum curative dose of compound I was found 1.25 mg/kg in 9 monkeys.

Row | SMILES | methemoglobin level before dosing ([1]; human, in vivo) | methemoglobin formation / toxicity versus primaquine [2] | toxicity versus primaquine [2] | radical curative activity versus primaquine (P. vivax) | anti-relapse activity versus primaquine [3] | anti-relapse activity versus primaquine ([3]; listed as compound of formula (I)) | effect on anti-oxidant defense enzymes versus primaquine [4] | curative effect at doses higher than 1.25 mg/kg (P. cynomolgi; 2.0, 2.50, 3.00 and 4.00 mg/kg (base) for 7 days, chloroquine 5 mg/kg (base)) | Minimum curative dose (P. cynomolgi; 9 rhesus monkeys, 7 days, chloroquine companion drug at 5 mg/kg (base)) | blood smears after stopping the treatment (P. cynomolgi; all monkeys observed over a period of 100 days) | curative (P. cynomolgi; rhesus monkeys, 7 days, dose range 1.25 mg/kb to 4 mg/kg) | relapse after stopping the treatment (P. cynomolgi; rhesus monkeys, up to 100 days after stopping the treatment) | methemoglobin level after dosing ([1]; healthy human volunteers, 15 mg daily for 7 days) | methemoglobin level before dosing ([1]; healthy human volunteers, starting level)
1 | COc1cc(NC(C)CCCN/C(C)=C2/CCOC2=O)c2ncccc2c1 (stereo not shown) [compound I, 3-[1-[[4-[(6-methoxy-8-quinolinyl)amino]pentyl]amino]ethylidene]-dihydro-2(3H)-furanone] | 2.29% | less methemoglobin formation | safer and less toxic | as effective as primaquine | comparable to Primaquine | comparable to primaquine | less effect on anti-oxidant defense enzymes than primaquine | curative | 1.25 mg/kg | remained negative | 100% | no relapse observed |  | 
2 | COc1cc(NC(C)CCCN)c2ncccc2c1 (stereo not shown) [primaquine, reference compound] |  |  |  |  |  |  |  |  |  |  |  |  | 16.23% | 3.97%
3 | COc1cc(C)c2c(Oc3cccc(C(F)(F)F)c3)c(OC)cc(NC(C)CCCN)c2n1 (stereo not shown) [tafenoquine, reference compound] |  | almost three times more than that of primaquine |  |  | more effective than primaquine |  |  |  |  |  |  |  |  | 
